20 compounds from patent US8884030B2, “Inhibitors of Flaviviridae viruses” (priority 2010, dated 2014) can be followed below.

Each structure is given as a SMILES string.

For the experiment, the system named is human hepatoma Huh-7 cell line harboring a HCV replicon. Description: HCV replicon assay (inhibition of viral replication, luciferase). Type of experiment: cell-based. The following applies: Hepatitis C virus, 72 h; 2 μM; Huh-7 HCV replicon cells, 3 days incubation; inhibition of viral replication; read-out: % inhibition at 2 μM. The method in brief: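 Huh-7 replicon cells (1600/well) exposed 3 days at 37 °C to 10-point 3-fold dilutions, 0.44% DMSO. Replication measured by Dual-Glo luciferase, background from ITMN-191 wells; cytotoxicity by calcein AM. EC50/CC50 from Hill fit; % inhibition at fixed concentration derivable from fit.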
Consider `CC1CCC(C(=O)N(c2cc(C#CC(C)(C)C)sc2C(=O)O)C2CCC(=NOCc3cccnc3)CC2)CC1` (centres unmarked) [Compound 118, 5-(3,3-Dimethylbut-1-ynyl)-3-(4-methyl-N-(4-(pyridin-3-ylmethoxyimino)cyclohexyl)cyclohexanecarboxamido)thiophene-2-carboxylic acid], for which the inhibition at 2 µM was determined as 100%.
As for `CC(C)(C)C#Cc1cc(N(C(=O)[C@H]2CC[C@H](C)CC2)C2CCC(=NOc3ccccc3)CC2)c(C(=O)O)s1` (some centres unmarked) [Compound 119, 5-(3,3-Dimethylbut-1-ynyl)-3-(4-methyl-N-(4-(phenoxyimino)cyclohexyl)cyclohexanecarboxamido)thiophene-2-carboxylic acid], the inhibition at 2 µM was determined as 97.1%.
In the case of `CON=C1CCC(N(C(=O)C2CCC(C)CC2)c2cc(C#CC(C)(C)C)sc2C(=O)O)CC1` (centres unmarked) [Compound 120, 5-(3,3-Dimethylbut-1-ynyl)-3-(N-(4-(methoxyimino)cyclohexyl)-4-methylcyclohexanecarboxamido)thiophene-2-carboxylic acid] it was 99.9%; in that of `CC1CCC(C(=O)N(c2cc(C#CC(C)(C)C)sc2C(=O)O)C2CCC(=NOCc3ccc(S(C)(=O)=O)cc3)CC2)CC1` (centres unmarked) [Compound 121, 3-(N-(4-(4-(Methylsulfonyl)benzyloxyimino)cyclohexyl)-4-methylcyclohexanecarboxamido)-5-(3,3-dimethylbut-1-ynyl)thiophene-2-carboxylic acid], 99.9%.
In the case of `CC1CCC(C(=O)N(c2cc(C#CC(C)(C)C)sc2C(=O)O)N(C)C2CCC3(CC2)OCCO3)CC1` (centres unmarked) [Compound 122] it was 99.7%.
As for `CC1CCC(C(=O)N(c2cc(C#CC(C)(C)C)sc2C(=O)O)N(C)[C@H]2CC[C@@H](O)CC2)CC1` (some centres unmarked) [Compound 123, 3-(2-(4-hydroxycyclohexyl)-2-methyl-1-(4-methylcyclohexanecarbonyl)hydrazinyl)-5-(3,3-dimethylbut-1-ynyl)thiophene-2-carboxylic acid], the inhibition at 2 µM turned out to be 99.9%.
In the case of `CC1CCC(C(=O)N(c2cc(C#CC(C)(C)C)sc2C(=O)O)N(C)C2CCN(C(=O)OC(C)(C)C)CC2)CC1` (centres unmarked) [Compound 127, 4-[N′-[2-carboxy-5-(3,3-dimethyl-but-1-ynyl)-thiophen-3-yl]-N-methyl-N′-(4-methyl-cyclohexanecarbonyl)-hydrazino]-piperidine-1-carboxylic acid tert-butyl ester] it was 98.3%; in that of `CC1CCC(C(=O)N(c2cc(C#CC(C)(C)C)sc2C(=O)O)N(C)C2CCNCC2)CC1` (centres unmarked) [Compound 128, 5-(3,3-dimethyl-but-1-ynyl)-3-[N′-methyl-N-(4-methyl-cyclohexanecarbonyl)-N′-piperidin-4-yl-hydrazino]-thiophene-2-carboxylic acid], 99.8%; in that of `CC1CCC(C(=O)N(c2cc(C#CC(C)(C)C)sc2C(=O)O)N(C)C2CCN(C)CC2)CC1` (centres unmarked) [Compound 129, 5-(3,3-dimethyl-but-1-ynyl)-3-[N′-methyl-N-(4-methyl-cyclohexanecarbonyl)-N′-(1-methyl-piperidin-4-yl)-hydrazino]-thiophene-2-carboxylic acid], 100%.
Under `CC1CCC(C(=O)N(c2cc(C#CC(C)(C)C)sc2C(=O)O)N(C)CCOc2cccnc2)CC1` (centres unmarked) [Compound 130, 5-(3,3-dimethyl-but-1-ynyl)-3-{N′-methyl-N-(4-methyl-cyclohexanecarbonyl)-N′-[2-(pyridin-3-yloxy)-ethyl]-hydrazino}-thiophene-2-carboxylic acid] stands 98.7%; under `CC1CCC(C(=O)N(c2cc(C#CC(C)(C)C)sc2C(=O)O)N(C)CC2CCOCC2)CC1` (centres unmarked) [Compound 131, 5-(3,3-dimethyl-but-1-ynyl)-3-[N′-methyl-N-(4-methyl-cyclohexanecarbonyl)-N′-(tetrahydro-pyran-4-ylmethyl)-hydrazino]-thiophene-2-carboxylic acid], 99.9%.
Under `CC1CCC(C(=O)N(c2cc(C#CC(C)(C)C)sc2C(=O)O)N(C)CCOc2ccccn2)CC1` (centres unmarked) [Compound 132, 5-(3,3-dimethyl-but-1-ynyl)-3-{N′-methyl-N-(4-methyl-cyclohexanecarbonyl)-N′-[2-(pyridin-2-yloxy)-ethyl]-hydrazino}-thiophene-2-carboxylic acid] stands 77.4%.
As for `CC1CCC(C(=O)N(NCCOc2cccnc2)c2cc(C#CC(C)(C)C)sc2C(=O)O)CC1` (centres unmarked) [Compound 133, 5-(3,3-dimethyl-but-1-ynyl)-3-{N-(4-methyl-cyclohexanecarbonyl)-N′-[2-(pyridin-3-yloxy)-ethyl]-hydrazino}-thiophene-2-carboxylic acid], the inhibition at 2 µM came out at 96.7%.
In the case of `CC1CCC(C(=O)N(c2cc(C#CC(C)(C)C)sc2C(=O)O)N(CCO)C2COC2)CC1` (centres unmarked) [Compound 134, 5-(3,3-dimethyl-but-1-ynyl)-3-[N′-(2-hydroxy-ethyl)-N-(4-methyl-cyclohexanecarbonyl)-N′-oxetan-3-yl-hydrazino]-thiophene-2-carboxylic acid] it was 99%; in that of `CC1CCC(C(=O)N(c2cc(C#CC(C)(C)C)sc2C(=O)O)N(C)CCO)CC1` (centres unmarked) [Compound 135, 5-(3,3-dimethyl-but-1-ynyl)-3-[N′-(2-hydroxy-ethyl)-N′-methyl-N-(4-methyl-cyclohexanecarbonyl)-hydrazino]-thiophene-2-carboxylic acid], 99.8%; in that of `CC1CCC(C(=O)N(c2cc(C#CC(C)(C)C)sc2C(=O)O)N(C)C)CC1` (centres unmarked) [Compound 136, 5-(3,3-dimethyl-but-1-ynyl)-3-[N′-dimethyl-N-(4-methyl-cyclohexanecarbonyl)-hydrazino]-thiophene-2-carboxylic acid], 98.9%.
Under `CC1CCC(C(=O)N(c2cc(C#CC(C)(C)C)sc2C(=O)O)N(C)c2ccccn2)CC1` (centres unmarked) [Compound 137, 5-(3,3-dimethyl-but-1-ynyl)-3-[N′-methyl-N-(4-methyl-cyclohexanecarbonyl)-N′-pyridin-2-yl-hydrazino]-thiophene-2-carboxylic acid] stands 100%.
Consider `CC1CCC(C(=O)N(c2cc(C#CC(C)(C)C)sc2C(=O)O)C2CCN(C(=O)c3cccnc3)CC2)CC1` (centres unmarked) [Compound 140, 5-(3,3-dimethyl-but-1-ynyl)-3-{(4-methyl-cyclohexanecarbonyl)-[1-(pyridine-3-carbonyl)-piperidin-4-yl]-amino}-thiophene-2-carboxylic acid], for which the inhibition at 2 µM was found to be 99.9%.
As to `CC1CCC(C(=O)N(c2cc(C#CC(C)(C)C)sc2C(=O)O)C2CCN(C(=O)c3cnccn3)CC2)CC1` (centres unmarked) [Compound 141, 5-(3,3-dimethyl-but-1-ynyl)-3-{(4-methyl-cyclohexanecarbonyl)-[1′-(pyrazine-2-carbonyl)-piperidin-4-yl]-amino}-thiophene-2-carboxylic acid], the inhibition at 2 µM was 99.9%.
Take `CC1CCC(C(=O)N(c2cc(C#CC(C)(C)C)sc2C(=O)O)C2CCN(C(=O)c3cccnc3)C2)CC1` (centres unmarked) [Compound 142, 5-(3,3-Dimethyl-but-1-ynyl)-3-{(4-methyl-cyclohexanecarbonyl)-[1-(pyridine-3-carbonyl)-pyrrolidin-3-yl]-amino}-thiophene-2-carboxylic acid]: the inhibition at 2 µM worked out at 99.6%.

The inhibition is the percentage by which the read-out fell short of the control.
